Experimental data from the supplement of paper PMC10011410.
± gives the standard deviation of the averaged measurements.

How the values were obtained:
U-2 OS [1] = experiment: cell viability (CellTiter-Glo) relative to DMSO (% of control); higher = more viable; details: 24 h
Procedure: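 Cell viability of U-2 OS cells by CellTiter-Glo after 24 h compound treatment at 5, 10 and 20 uM (some at 40 and 80 uM), measured in parallel with the glutathione assay, as percent of DMSO control. Five technical replicate plates, averaged.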

U-2 OS [2] = experiment: cell painting activity score (Mahalanobis distance from DMSO wells); higher = stronger morphological phenotype; details: 24 h
How it was run: (§1)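 Cell painting used U-2 OS cells at about 1,500 per well in 384-well plates, treated by pin tool for 24 h at 37 °C, usually at six 2-fold concentrations from 20 μM to 625 nM. Cells were stained with MitoTracker, concanavalin A, phalloidin, wheat germ agglutinin, Hoechst and SYTO 14 and imaged on an Opera Phenix. Features were extracted with CellProfiler and normalized to DMSO cells on the same plate. The activity score is the Mahalanobis distance from DMSO wells; cell count is relative to DMSO wells. Values are means of four replicate plates.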

U-2 OS [3] = experiment: relative cell count vs DMSO (cell painting) (fraction of DMSO control); higher = more cells remaining (less cytotoxic); details: 24 h
How it was run: as §1

U-2 OS [4] = experiment: intracellular GSH:GSSG ratio (calculated); higher = more reduced glutathione pool; details: 24 h
Procedure: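 Intracellular glutathione in U-2 OS cells after 24 h compound treatment at 5, 10 and 20 uM (some at 40 and 80 uM). Total glutathione and GSSG were measured with the GSH/GSSG-Glo kit, and the GSH:GSSG ratio was calculated. Mean of five technical replicate plates.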

U-2 OS [5] = experiment: AUC of culture confluence over time (live-cell imaging) (AUC (confluence % x time)); higher = more confluent culture (less growth inhibition)
Procedure: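 Live-cell Incucyte imaging of U-2 OS cells in F-12K medium. Compounds were tested mostly at 5, 10 and 20 uM, and cells were imaged every 4 h for up to 60 h. Value is the area under the curve of phase-contrast confluence over time.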

CC(C)([C@](C1=O)(C2=O)C/C=C(C)\C)[C@@H](C[C@]31C[C@@H](C(C)(OC3=C2C(C4=CC(O)=C(C=C4)O)=O)C)C/C=C(C)\C)C/C=C(C)\C
cell viability (U-2 OS [1]; 5 µM): 99.7 ± 2.4
cell viability (U-2 OS [1]; 10 µM): 62.6 ± 14
cell viability (U-2 OS [1]; 20 µM): 43.4 ± 17
cell viability (U-2 OS [1]; 40 µM): 0.646 ± 0.18
cell viability (U-2 OS [1]; 80 µM): 0.745 ± 0.2
cell painting activity score (U-2 OS [2]; 0.625 µM): 3.69
cell painting activity score (U-2 OS [2]; 1.25 µM): 3.85
cell painting activity score (U-2 OS [2]; 2.5 µM): 6.36
cell painting activity score (U-2 OS [2]; 5 µM): 7.13
cell painting activity score (U-2 OS [2]; 10 µM): 13.5
cell painting activity score (U-2 OS [2]; 20 µM): 18.6
relative cell count (U-2 OS [3]; 0.625 µM): 1.21
relative cell count (U-2 OS [3]; 1.25 µM): 1.12
relative cell count (U-2 OS [3]; 2.5 µM): 1.19
relative cell count (U-2 OS [3]; 5 µM): 1.15
relative cell count (U-2 OS [3]; 10 µM): 1.04
relative cell count (U-2 OS [3]; 20 µM): 0.492
intracellular GSH:GSSG ratio (U-2 OS [4]; 5 µM): 27
intracellular GSH:GSSG ratio (U-2 OS [4]; 10 µM): 22.3
intracellular GSH:GSSG ratio (U-2 OS [4]; 20 µM): 10.9
intracellular GSH:GSSG ratio (U-2 OS [4]; 80 µM): 17.8

CC(Cc1ccc(O)c(O)c1)C(C)Cc1ccc(O)c(O)c1 (stereo unspecified)
cell viability (U-2 OS [1]; 5 µM): 101 ± 4
cell viability (U-2 OS [1]; 10 µM): 104 ± 8.2
cell viability (U-2 OS [1]; 20 µM): 100 ± 5.4
cell viability (U-2 OS [1]; 40 µM): 87.1 ± 6.5
cell viability (U-2 OS [1]; 80 µM): 0.624 ± 0.073
cell painting activity score (U-2 OS [2]; 0.625 µM): 4.39
cell painting activity score (U-2 OS [2]; 1.25 µM): 8.68
cell painting activity score (U-2 OS [2]; 2.5 µM): 11.8
cell painting activity score (U-2 OS [2]; 5 µM): 13.1
cell painting activity score (U-2 OS [2]; 10 µM): 15.4
cell painting activity score (U-2 OS [2]; 20 µM): 12.1
cell painting activity score (U-2 OS [2]; 40 µM): 17.4
cell painting activity score (U-2 OS [2]; 80 µM): 22.6
AUC of culture confluence over time (U-2 OS [5]; 5 µM): 42.1
AUC of culture confluence over time (U-2 OS [5]; 10 µM): 39.8
AUC of culture confluence over time (U-2 OS [5]; 20 µM): 43.8
AUC of culture confluence over time (U-2 OS [5]; 40 µM): 28.7
AUC of culture confluence over time (U-2 OS [5]; 80 µM): 19.1
relative cell count (U-2 OS [3]; 0.625 µM): 0.839
relative cell count (U-2 OS [3]; 1.25 µM): 0.852
relative cell count (U-2 OS [3]; 2.5 µM): 0.896
relative cell count (U-2 OS [3]; 5 µM): 0.816
relative cell count (U-2 OS [3]; 10 µM): 0.835
relative cell count (U-2 OS [3]; 20 µM): 0.359
relative cell count (U-2 OS [3]; 40 µM): 0.261
relative cell count (U-2 OS [3]; 80 µM): 0.228
intracellular GSH:GSSG ratio (U-2 OS [4]; 5 µM): 24
intracellular GSH:GSSG ratio (U-2 OS [4]; 10 µM): 47.5
intracellular GSH:GSSG ratio (U-2 OS [4]; 20 µM): 22.3
intracellular GSH:GSSG ratio (U-2 OS [4]; 40 µM): 22.5

CC1(C)[C@@H](O[C@H]2O[C@H](C(=O)O)[C@@H](O)[C@H](O)[C@H]2O[C@@H]2O[C@H](C(=O)O)[C@@H](O)[C@H](O)[C@H]2O)CC[C@]2(C)[C@H]3C(=O)C=C4[C@@H]5C[C@@](C)(C(=O)O)CC[C@]5(C)CC[C@@]4(C)[C@]3(C)CC[C@@H]12.N
cell painting activity score (U-2 OS [2]; 0.625 µM): 4.09
cell painting activity score (U-2 OS [2]; 1.25 µM): 5.25
cell painting activity score (U-2 OS [2]; 2.5 µM): 5.85
cell painting activity score (U-2 OS [2]; 5 µM): 3.67
cell painting activity score (U-2 OS [2]; 10 µM): 3.06
cell painting activity score (U-2 OS [2]; 20 µM): 3.66
AUC of culture confluence over time (U-2 OS [5]; 5 µM): 50.8
AUC of culture confluence over time (U-2 OS [5]; 10 µM): 48.2
AUC of culture confluence over time (U-2 OS [5]; 20 µM): 51
relative cell count (U-2 OS [3]; 0.625 µM): 1
relative cell count (U-2 OS [3]; 1.25 µM): 0.993
relative cell count (U-2 OS [3]; 2.5 µM): 0.972
relative cell count (U-2 OS [3]; 5 µM): 0.982
relative cell count (U-2 OS [3]; 10 µM): 1
relative cell count (U-2 OS [3]; 20 µM): 1.03

COc1cc([C@@H]2c3cc4c(cc3[C@@H](O[C@@H]3O[C@@H]5CO[C@@H](C)O[C@H]5[C@H](O)[C@H]3O)[C@H]3COC(=O)[C@H]23)OCO4)cc(OC)c1O
cell painting activity score (U-2 OS [2]; 0.625 µM): 11.9
cell painting activity score (U-2 OS [2]; 1.25 µM): 14
cell painting activity score (U-2 OS [2]; 2.5 µM): 12.9
cell painting activity score (U-2 OS [2]; 5 µM): 14.6
cell painting activity score (U-2 OS [2]; 10 µM): 14.4
cell painting activity score (U-2 OS [2]; 20 µM): 15.2
AUC of culture confluence over time (U-2 OS [5]; 5 µM): 26.2
AUC of culture confluence over time (U-2 OS [5]; 10 µM): 24.8
AUC of culture confluence over time (U-2 OS [5]; 20 µM): 18.3
relative cell count (U-2 OS [3]; 0.625 µM): 0.661
relative cell count (U-2 OS [3]; 1.25 µM): 0.635
relative cell count (U-2 OS [3]; 2.5 µM): 0.568
relative cell count (U-2 OS [3]; 5 µM): 0.604
relative cell count (U-2 OS [3]; 10 µM): 0.551
relative cell count (U-2 OS [3]; 20 µM): 0.536

Cc1[nH]c2ccccc2c1CCNCc1ccc(/C=C/C(=O)NO)cc1
cell painting activity score (U-2 OS [2]; 0.625 µM): 16.3
cell painting activity score (U-2 OS [2]; 1.25 µM): 16
cell painting activity score (U-2 OS [2]; 2.5 µM): 15.9
cell painting activity score (U-2 OS [2]; 5 µM): 15.3
cell painting activity score (U-2 OS [2]; 10 µM): 13.8
cell painting activity score (U-2 OS [2]; 20 µM): 16.2
AUC of culture confluence over time (U-2 OS [5]; 5 µM): 16.7
AUC of culture confluence over time (U-2 OS [5]; 10 µM): 19.5
AUC of culture confluence over time (U-2 OS [5]; 20 µM): 21
relative cell count (U-2 OS [3]; 0.625 µM): 0.494
relative cell count (U-2 OS [3]; 1.25 µM): 0.472
relative cell count (U-2 OS [3]; 2.5 µM): 0.445
relative cell count (U-2 OS [3]; 5 µM): 0.466
relative cell count (U-2 OS [3]; 10 µM): 0.474
relative cell count (U-2 OS [3]; 20 µM): 0.419

NC(=O)c1ccc(I)c([N+](=O)[O-])c1
cell painting activity score (U-2 OS [2]; 0.625 µM): 3.13
cell painting activity score (U-2 OS [2]; 1.25 µM): 3.07
cell painting activity score (U-2 OS [2]; 2.5 µM): 2.86
cell painting activity score (U-2 OS [2]; 5 µM): 3.68
cell painting activity score (U-2 OS [2]; 10 µM): 3.09
cell painting activity score (U-2 OS [2]; 20 µM): 3.55
AUC of culture confluence over time (U-2 OS [5]; 5 µM): 56.5
AUC of culture confluence over time (U-2 OS [5]; 10 µM): 53.5
AUC of culture confluence over time (U-2 OS [5]; 20 µM): 50.1
relative cell count (U-2 OS [3]; 0.625 µM): 1.01
relative cell count (U-2 OS [3]; 1.25 µM): 1.07
relative cell count (U-2 OS [3]; 2.5 µM): 1.05
relative cell count (U-2 OS [3]; 5 µM): 1.04
relative cell count (U-2 OS [3]; 10 µM): 1.06
relative cell count (U-2 OS [3]; 20 µM): 1.07

CC(C)(N=NC(C)(C)C(=N)N)C(=N)N.Cl.Cl
cell painting activity score (U-2 OS [2]; 0.625 µM): 5.15
cell painting activity score (U-2 OS [2]; 1.25 µM): 4.98
cell painting activity score (U-2 OS [2]; 2.5 µM): 5.89
cell painting activity score (U-2 OS [2]; 5 µM): 7.2
cell painting activity score (U-2 OS [2]; 10 µM): 8.42
cell painting activity score (U-2 OS [2]; 20 µM): 9.74
AUC of culture confluence over time (U-2 OS [5]; 5 µM): 49.5
AUC of culture confluence over time (U-2 OS [5]; 10 µM): 48.3
AUC of culture confluence over time (U-2 OS [5]; 20 µM): 46.6
relative cell count (U-2 OS [3]; 0.625 µM): 1.01
relative cell count (U-2 OS [3]; 1.25 µM): 0.966
relative cell count (U-2 OS [3]; 2.5 µM): 0.949
relative cell count (U-2 OS [3]; 5 µM): 1.01
relative cell count (U-2 OS [3]; 10 µM): 0.975
relative cell count (U-2 OS [3]; 20 µM): 0.977

Cn1ncnc2c(=O)n(C)c(=O)nc1-2
cell painting activity score (U-2 OS [2]; 0.625 µM): 14.5
cell painting activity score (U-2 OS [2]; 1.25 µM): 14
cell painting activity score (U-2 OS [2]; 2.5 µM): 15.7
cell painting activity score (U-2 OS [2]; 5 µM): 30
cell painting activity score (U-2 OS [2]; 10 µM): 30.1
cell painting activity score (U-2 OS [2]; 20 µM): 29
AUC of culture confluence over time (U-2 OS [5]; 5 µM): 16.9
AUC of culture confluence over time (U-2 OS [5]; 10 µM): 16.5
AUC of culture confluence over time (U-2 OS [5]; 20 µM): 14.2
relative cell count (U-2 OS [3]; 0.625 µM): 0.575
relative cell count (U-2 OS [3]; 1.25 µM): 0.386
relative cell count (U-2 OS [3]; 2.5 µM): 0.0951
relative cell count (U-2 OS [3]; 5 µM): 0.0345
relative cell count (U-2 OS [3]; 10 µM): 0.021
relative cell count (U-2 OS [3]; 20 µM): 0.0323

C[C@@H]1O[C@@H](O[C@H]2[C@H](O[C@H]3CC[C@@]4(C)[C@@H](CC[C@]5(C)[C@@H]4CC=C4[C@@H]6CC(C)(C)CC[C@]6(C(=O)O[C@@H]6O[C@H](CO[C@@H]7O[C@H](CO)[C@@H](O[C@@H]8O[C@@H](C)[C@H](O)[C@@H](O)[C@H]8O)[C@H](O)[C@H]7O)[C@@H](O)[C@H](O)[C@H]6O)CC[C@]45C)[C@]3(C)CO)OC[C@H](O)[C@@H]2O)[C@H](O)[C@H](O)[C@H]1O
cell painting activity score (U-2 OS [2]; 0.625 µM): 3.46
cell painting activity score (U-2 OS [2]; 1.25 µM): 5.62
cell painting activity score (U-2 OS [2]; 2.5 µM): 3.28
cell painting activity score (U-2 OS [2]; 5 µM): 3.16
cell painting activity score (U-2 OS [2]; 10 µM): 3.23
cell painting activity score (U-2 OS [2]; 20 µM): 2.9
AUC of culture confluence over time (U-2 OS [5]; 5 µM): 45.1
AUC of culture confluence over time (U-2 OS [5]; 10 µM): 48.4
AUC of culture confluence over time (U-2 OS [5]; 20 µM): 45.2
relative cell count (U-2 OS [3]; 0.625 µM): 0.985
relative cell count (U-2 OS [3]; 1.25 µM): 0.966
relative cell count (U-2 OS [3]; 2.5 µM): 0.955
relative cell count (U-2 OS [3]; 5 µM): 1
relative cell count (U-2 OS [3]; 10 µM): 1.01
relative cell count (U-2 OS [3]; 20 µM): 1.04
